Data on 5 molecules can be found in PMC6152321, “High-Resolution Inhibition Profiling Combined with HPLC-HRMS-SPE-NMR for Identification of PTP1B Inhibitors from Vietnamese Plants” (Molecules : A Journal of Synthetic Chemistry and Natural …, 2017).

Each structure is given as a SMILES string.

Test [1] deals with T1, Recombinant human protein tyrosine phosphatase 1B (PTP1B) (Homo sapiens, UniProt P18031).
T1 construct: purchased Enzo Life Sciences Inc. BML-SE332-0050
T1 sequence (P18031 1-322 limits assumed): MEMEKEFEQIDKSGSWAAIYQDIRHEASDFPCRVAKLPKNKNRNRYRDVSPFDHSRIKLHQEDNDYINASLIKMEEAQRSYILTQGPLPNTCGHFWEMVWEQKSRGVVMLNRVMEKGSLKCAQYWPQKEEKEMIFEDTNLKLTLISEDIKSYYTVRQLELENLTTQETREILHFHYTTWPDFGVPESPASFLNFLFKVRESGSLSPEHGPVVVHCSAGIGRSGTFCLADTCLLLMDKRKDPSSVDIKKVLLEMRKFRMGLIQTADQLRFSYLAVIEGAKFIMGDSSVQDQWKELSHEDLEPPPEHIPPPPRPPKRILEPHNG
Nature of the test: In vitro PTP1B inhibition assay (pNPP hydrolysis, absorbance at 405 nm). The following applies: for IC50: isolated compounds, mean ± SD, n = 3. In kind it is biochemical. As for the experimental part:
(§1) Based on the method described by Tahtah et al., the PTP1B inhibition assay was performed at 25 °C using a two-component buffer, containing 50 mM Tris, 50 mM bis-Tris and 100 mM NaCl, adjusted to pH 7.0 with acetic acid. The final reaction volume was 180 µL, including 18 µL test sample dissolved in DMSO, 52 µL of buffer with 3.46 mM EDTA (final well concentrations 10% DMSO and 1 mM EDTA), and 60 µL of buffer with 1.5 mM pNPP and 6 mM DTT (final well concentrations 0.5 mM pNPP and 2 mM DTT). After preincubation at 25 °C for 10 min, the reaction was started by addition of 50 µL of 0.001 µg/µL PTP1B stock solution (final well concentration: 0.05 µg/well). The hydrolysis rate of pNPP to release p-nitrophenol was determined by measuring the absorbance at 405 nm every 30 s for 10 min. Preincubation and absorbance measurements were performed with a Multiscan FC microplate photometer with a built-in incubator (Thermo Scientific, Waltham, MA, USA) coupled to SkanIt version 2.5.1 software for data acquisition. The PTP1B inhibitory activity was expressed as percentage inhibition and was calculated using the following formula: % inhibition = (Slopeblank − Slopesample)/Slopeblank × 100
RK682 was used as a positive control and all measurements were performed in triplicate. Dose-response curves and IC50 values were obtained using GraFit version 5 (Erithacus Software Ltd., Horley, UK).

Test [2] concerns the target T1, Recombinant human protein tyrosine phosphatase 1B (PTP1B). Kind of test: Kinetics of PTP1B inhibition (Lineweaver-Burk plots, Michaelis-Menten fit). The class given is biochemical. The following applies: for Mode of Inhibition: from Lineweaver-Burk plots; for Ki: pNPP 0.125-4.0 mM, mean ± SD, n = 3. As for the experimental part: as §1
Enzyme kinetics of isolated PTP1B inhibitors was measured in triplicate using the standard assay conditions described above. Reactions were carried out with increasing concentrations of pNPP (0.125, 0.25, 0.5, 1.0, 2.0 and 4.0 mM) as substrate in the absence and presence of test samples (4 concentrations). The mode of inhibition was determined graphically from the Lineweaver-Burk plots. Kinetic parameters were calculated by fitting the data to the Michaelis–Menten equation using non-linear regression analysis (GraphPad Prism 7.0, GraphPad Software Inc., La Jolla, CA, USA).

Another test concerns PTP1B. The following applies: cited from earlier work; for IC50: read-out: IC50 against PTP1B.

As to `CC1(C)C=Cc2cc(-c3coc4cc(O)cc(O)c4c3=O)ccc2O1` [Compound 1, isoderrone], the IC50 (usually the concentration at which inhibition is half-maximal) in test [1] came to 22.7 ± 1.7 µM. In test [2], the “Mode of Inhibition” value is recorded as “Non-competitive”; the Ki – broadly, the dissociation constant of the complex between target and ligand, obtained from inhibition or displacement – was determined as 21.3 ± 2.8 µM. The “PTP1B inhibition at 25 µM” value in the test with PTP1B (concentration 25 µM) is 78%.

With `CC1(C)C=Cc2c(cc(O)c3c(=O)c(-c4ccc(O)cc4)coc23)O1` [Compound 2, derrone], in test [1], the IC50 came to 12.6 ± 1.6 µM. Further, in test [2], the “Mode of Inhibition” value is given as “Non-competitive” and the Ki stood at 7.9 ± 1.9 µM. Further, the IC50 with PTP1B is 20.63 ± 0.17 µM.

As for `CC1(C)C=Cc2c(cc3occ(-c4ccc(O)cc4)c(=O)c3c2O)O1` [Compound 3, alpinumisoflavone], in test [1], the IC50 was determined as 21.2 ± 3.8 µM. Further, in test [2], the “Mode of Inhibition” value is “Non-competitive” and the Ki was found to be 14.3 ± 2 µM. Besides, the IC50 in the test with PTP1B is 37.52 ± 0.31 µM.

Consider `CC(C)=C[C@@H]1C[C@](C)(/C=C/c2cc(-c3coc4cc(O)cc(O)c4c3=O)ccc2O)Oc2ccc(-c3coc4cc(O)cc(O)c4c3=O)cc21` [Compound 4, mucusisoflavone B], for which the IC50 in test [1] turned out to be 2.5 ± 0.2 µM. Also, in test [2], the “Mode of Inhibition” value is “Non-competitive” and the Ki came to 3 ± 0.5 µM.

Regarding `CCCCCCCCCCCCCCCC(=O)C1=C(O)C(CO)OC1=O` (centres unmarked) [RK682, reference compound], the IC50 in test [1] came out at 10.4 ± 1.6 µM. In test [1] (positive control in crude extract screening), the “IC50 of RK682” value was 3.8 ± 0.6 µg/mL.
